{
  "source": "paper PMC5218480",
  "about": "(PLoS ONE, 2017)",
  "test_system": "MV-4-11 cells",
  "experiment": "Gene expression microarray analysis (Affymetrix PrimeView) and GSEA",
  "assay_type": "cell-based, human",
  "set-up": "RFU PODN (11730768_x_at) / Fold change /veh PODN (11730768_x_at) / RFU LINC00158 (11744669_a_at) / Fold change /veh LINC00158 (11744669_a_at) / RFU DUSP10 (11751237_a_at) / Fold change /veh DUSP10 (11751237_a_at) / RFU ID3 (11757404_x_at) / Fold change /veh ID3 (11757404_x_at) / RFU PLEKHG5 (11737974_s_at) / Fold change /veh PLEKHG5 (11737974_s_at) / RFU LRRC4B (11730491_at) / Fold change /veh LRRC4B (11730491_at) / RFU GIMAP4 (11747438_a_at) / Fold change /veh GIMAP4 (11747438_a_at) / RFU KRT8 (11758183_x_at) / Fold change /veh KRT8 (11758183_x_at) / RFU CNN1 (11734310_a_at) / Fold change /veh CNN1 (11734310_a_at) / RFU VPS37D (11726825_at) / Fold change /veh VPS37D (11726825_at) / RFU C10orf10 (11716522_x_at) / Fold change /veh C10orf10 (11716522_x_at) / RFU KIR2DL2 /// KIR2DL4 /// KIR2DL5A /// KIR2DL5B /// KIR2DS1 /// KIR2DS2 /// KIR2DS3 /// KIR2DS4 /// KIR3DL3 /// KIR3DL3 /// KIR3DS1 (11738374_at) / Fold change /veh KIR2DL2 /// KIR2DL4 /// KIR2DL5A /// KIR2DL5B /// KIR2DS1 /// KIR2DS2 /// KIR2DS3 /// KIR2DS4 /// KIR3DL3 /// KIR3DL3 /// KIR3DS1 (11738374_at) / RFU C1QL1 (11718748_at) / Fold change /veh C1QL1 (11718748_at) / RFU TMPRSS4 (11747572_a_at) / Fold change /veh TMPRSS4 (11747572_a_at) / RFU HAMP (11756126_x_at) / Fold change /veh HAMP (11756126_x_at) / RFU RNFT2 (11725882_a_at) / Fold change /veh RNFT2 (11725882_a_at) / RFU NR4A2 (11747474_a_at) / Fold change /veh NR4A2 (11747474_a_at) / RFU ABCC12 (11746883_a_at) / Fold change /veh ABCC12 (11746883_a_at) / RFU TMEM136 (11760407_x_at) / Fold change /veh TMEM136 (11760407_x_at) / RFU CLDN22 /// WWC2 (11732394_at) / Fold change /veh CLDN22 /// WWC2 (11732394_at) / RFU HLA-DPB1 (11760878_x_at) / Fold change /veh HLA-DPB1 (11760878_x_at) / RFU SPINT1 (11716480_a_at) / Fold change /veh SPINT1 (11716480_a_at) / RFU GAP43 (11754022_s_at) / Fold change /veh GAP43 (11754022_s_at) / RFU A4GNT (11735810_at) / Fold change /veh A4GNT (11735810_at) / RFU PRB3 (11715151_x_at) / Fold change /veh PRB3 (11715151_x_at) / RFU TUBB4B (11761932_at) / Fold change /veh TUBB4B (11761932_at) / RFU CAPN14 (11732068_a_at) / Fold change /veh CAPN14 (11732068_a_at) / RFU TMCC2 (11721928_a_at) / Fold change /veh TMCC2 (11721928_a_at) / RFU IRGQ (11745062_a_at) / Fold change /veh IRGQ (11745062_a_at) / RFU FAM174B (11720279_a_at) / Fold change /veh FAM174B (11720279_a_at) / RFU TMPRSS4 (11748680_a_at) / Fold change /veh TMPRSS4 (11748680_a_at) / RFU FAM212B (11763350_a_at) / Fold change /veh FAM212B (11763350_a_at) / RFU PLEKHG5 (11743358_a_at) / Fold change /veh PLEKHG5 (11743358_a_at) / RFU ZSCAN30 (11745921_a_at) / Fold change /veh ZSCAN30 (11745921_a_at) / RFU CMKLR1 (11741424_a_at) / Fold change /veh CMKLR1 (11741424_a_at) / RFU LOC101060620 /// MAPK8IP1 (11723275_at) / Fold change /veh LOC101060620 /// MAPK8IP1 (11723275_at) / RFU SPTSSB (11747773_x_at) / Fold change /veh SPTSSB (11747773_x_at) / RFU PRSS12 (11739890_at) / Fold change /veh PRSS12 (11739890_at) / RFU BIN1 (11741810_x_at) / Fold change /veh BIN1 (11741810_x_at) / RFU WNT11 (11732464_a_at) / Fold change /veh WNT11 (11732464_a_at) / RFU C10orf10 (11716521_a_at) / Fold change /veh C10orf10 (11716521_a_at) / RFU C5orf56 (11738089_at) / Fold change /veh C5orf56 (11738089_at) / RFU CYB561 (11721691_x_at) / Fold change /veh CYB561 (11721691_x_at) / RFU ANKRD19P (11752326_a_at) / Fold change /veh ANKRD19P (11752326_a_at) / RFU OR2T12 /// OR2T33 /// OR2T8 (11738714_s_at) / Fold change /veh OR2T12 /// OR2T33 /// OR2T8 (11738714_s_at) / RFU VCAN (11748164_a_at) / Fold change /veh VCAN (11748164_a_at) / RFU JSRP1 (11732532_at) / Fold change /veh JSRP1 (11732532_at) / RFU KRTAP10-11 (11738290_x_at) / Fold change /veh KRTAP10-11 (11738290_x_at) / RFU MYO3A (11730013_a_at) / Fold change /veh MYO3A (11730013_a_at) / RFU EBF3 (11725865_a_at) / Fold change /veh EBF3 (11725865_a_at) / RFU CAMK2N1 (11719241_x_at) / Fold change /veh CAMK2N1 (11719241_x_at) / RFU C5orf56 (11738088_a_at) / Fold change /veh C5orf56 (11738088_a_at) / RFU OLFML3 (11715873_a_at) / Fold change /veh OLFML3 (11715873_a_at) / RFU LOC100653217 /// NTM (11731650_a_at) / Fold change /veh LOC100653217 /// NTM (11731650_a_at) / RFU MAPK11 (11762145_a_at) / Fold change /veh MAPK11 (11762145_a_at) / RFU FIZ1 (11724087_x_at) / Fold change /veh FIZ1 (11724087_x_at) / RFU OASL (11726364_x_at) / Fold change /veh OASL (11726364_x_at) / RFU SOX15 (11748057_x_at) / Fold change /veh SOX15 (11748057_x_at) / RFU CD79A (11719716_a_at) / Fold change /veh CD79A (11719716_a_at) / RFU HIST1H1D (11736915_at) / Fold change /veh HIST1H1D (11736915_at) / RFU CASKIN2 (11723855_a_at) / Fold change /veh CASKIN2 (11723855_a_at) / RFU LOC730098 (11760151_x_at) / Fold change /veh LOC730098 (11760151_x_at) / RFU OR4N2 (11742367_at) / Fold change /veh OR4N2 (11742367_at) / RFU PRRT2 (11749266_a_at) / Fold change /veh PRRT2 (11749266_a_at) / RFU SNX32 (11753110_a_at) / Fold change /veh SNX32 (11753110_a_at) / RFU CDHR5 (11726645_a_at) / Fold change /veh CDHR5 (11726645_a_at) / RFU RCAN1 (11760418_a_at) / Fold change /veh RCAN1 (11760418_a_at) / RFU FAM167A (11723789_a_at) / Fold change /veh FAM167A (11723789_a_at) / RFU FAM26E (11764081_at) / Fold change /veh FAM26E (11764081_at) / RFU ISYNA1 (11749810_s_at) / Fold change /veh ISYNA1 (11749810_s_at) / RFU ACY1 (11761880_at) / Fold change /veh ACY1 (11761880_at) / RFU 11764098_at / Fold change /veh 11764098_at / RFU SAMD14 (11745864_x_at) / Fold change /veh SAMD14 (11745864_x_at) / RFU NPB (11741838_a_at) / Fold change /veh NPB (11741838_a_at) / RFU TMPRSS6 (11731388_a_at) / Fold change /veh TMPRSS6 (11731388_a_at) / RFU KRTAP10-2 (11738614_at) / Fold change /veh KRTAP10-2 (11738614_at) / RFU ARHGAP8 /// PRR5-ARHGAP8 (11727945_x_at) / Fold change /veh ARHGAP8 /// PRR5-ARHGAP8 (11727945_x_at) / RFU KRTAP5-7 /// NADSYN1 (11734609_at) / Fold change /veh KRTAP5-7 /// NADSYN1 (11734609_at) / RFU RASL12 (11751679_a_at) / Fold change /veh RASL12 (11751679_a_at) / RFU CDKN2B (11736163_a_at) / Fold change /veh CDKN2B (11736163_a_at) / RFU PRF1 (11729649_at) / Fold change /veh PRF1 (11729649_at) / RFU, ZNF638 /// ZNF638-IT1 / Fold change vs veh, ZNF638 /// ZNF638-IT1 / RFU, PANK3 / Fold change vs veh, PANK3 / RFU, SH3YL1 / Fold change vs veh, SH3YL1 / RFU, ZEB2 / Fold change vs veh, ZEB2 / RFU, NRIP1 / Fold change vs veh, NRIP1 / RFU, PTTG1IP / Fold change vs veh, PTTG1IP / RFU, CAPN2 / Fold change vs veh, CAPN2 / RFU, MED14 / Fold change vs veh, MED14 / RFU, SNORA58 / Fold change vs veh, SNORA58 / RFU, C1orf63 / Fold change vs veh, C1orf63 / RFU, LRRFIP1 / Fold change vs veh, LRRFIP1 / RFU, NDUFAF7 / Fold change vs veh, NDUFAF7 / RFU, SLC12A2 / Fold change vs veh, SLC12A2 / RFU, IBTK / Fold change vs veh, IBTK / RFU, ESF1 / Fold change vs veh, ESF1 / Fold change vs veh, TMEM50B / RFU, TAOK1 / Fold change vs veh, TAOK1 / RFU, ACBD3 / Fold change vs veh, ACBD3 / RFU, TMA16 / Fold change vs veh, TMA16 / RFU, RWDD3 / Fold change vs veh, RWDD3 / RFU, BCAT1 / Fold change vs veh, BCAT1 / RFU, EDEM3 / Fold change vs veh, EDEM3 / RFU, TMEM33 / Fold change vs veh, TMEM33 / RFU, WDR75 / Fold change vs veh, WDR75 / RFU, AHCTF1 / Fold change vs veh, AHCTF1 / RFU, TFRC / Fold change vs veh, TFRC / RFU, ZDHHC17 / Fold change vs veh, ZDHHC17 / RFU, NOM1 / Fold change vs veh, NOM1 / RFU, ARL8B / Fold change vs veh, ARL8B / RFU, ZBTB11 / Fold change vs veh, ZBTB11 / RFU, TAMM41 / Fold change vs veh, TAMM41 / RFU, KIAA1704 /// LOC100996395 / Fold change vs veh, KIAA1704 /// LOC100996395 / RFU, ING1 / Fold change vs veh, ING1 / RFU, TRMT61B / Fold change vs veh, TRMT61B / RFU, FUBP3 / Fold change vs veh, FUBP3 / RFU, TP53 / Fold change vs veh, TP53 / RFU, TNKS2 / Fold change vs veh, TNKS2 / RFU, ZFP14 / Fold change vs veh, ZFP14 / RFU, ACTR2 / Fold change vs veh, ACTR2 / RFU, PPP3R1 / Fold change vs veh, PPP3R1 / RFU, PIK3R1 / Fold change vs veh, PIK3R1 / RFU, HNRNPA1 / Fold change vs veh, HNRNPA1 / RFU, RNF170 / Fold change vs veh, RNF170 / RFU, ZNF28 / Fold change vs veh, ZNF28 / RFU, RNGTT / Fold change vs veh, RNGTT / RFU, OGT / Fold change vs veh, OGT / RFU, BRD1 / Fold change vs veh, BRD1 / RFU, MARS / Fold change vs veh, MARS / RFU, ZNF655 / Fold change vs veh, ZNF655 / RFU, FAHD1 / Fold change vs veh, FAHD1 / RFU, BDP1 / Fold change vs veh, BDP1 / RFU, LRRCC1 / Fold change vs veh, LRRCC1 / RFU, ARID1A / Fold change vs veh, ARID1A / RFU, ZNF146 / Fold change vs veh, ZNF146 / RFU, ZNF330 / Fold change vs veh, ZNF330 / RFU, GPN3 / Fold change vs veh, GPN3 / RFU, C9orf123 / Fold change vs veh, C9orf123 / RFU, N4BP2L2 / Fold change vs veh, N4BP2L2 / RFU, ARFIP1 / Fold change vs veh, ARFIP1 / RFU, FAM179B / Fold change vs veh, FAM179B / RFU, BCL10 / Fold change vs veh, BCL10 / RFU, UHRF1BP1L / Fold change vs veh, UHRF1BP1L / RFU, BET1 / Fold change vs veh, BET1 / RFU, CNOT2 / Fold change vs veh, CNOT2 / RFU, ZNF268 / Fold change vs veh, ZNF268 / Fold change vs veh, ZNF507 / RFU, DGCR2 / Fold change vs veh, DGCR2 / RFU, WDSUB1 / Fold change vs veh, WDSUB1 / Fold change vs veh, HSP90B1 /// MIR3652 / RFU, ADSS / Fold change vs veh, ADSS / RFU, GK / Fold change vs veh, GK / RFU, ZNF148 / Fold change vs veh, ZNF148 / RFU, TAF9 / Fold change vs veh, TAF9 / RFU, SLC1A5 / Fold change vs veh, SLC1A5 / RFU, SLMO2 / Fold change vs veh, SLMO2 / RFU, ABCC4 / Fold change vs veh, ABCC4 / RFU, LOC101060439 /// RAP1B / Fold change vs veh, LOC101060439 /// RAP1B / RFU, RFX7 / Fold change vs veh, RFX7 / RFU, GTPBP10 / Fold change vs veh, GTPBP10 / RFU, CNEP1R1 / Fold change vs veh, CNEP1R1 / RFU, BIVM-ERCC5 /// ERCC5 / Fold change vs veh, BIVM-ERCC5 /// ERCC5 / RFU, ILF3 / Fold change vs veh, ILF3 / RFU 11762660_at / Fold change /veh 11762660_at / RFU VCAN (11757783_s_at) / Fold change /veh VCAN (11757783_s_at) / RFU DDX43 (11728927_at) / Fold change /veh DDX43 (11728927_at) / RFU KRT8 (11758188_x_at) / Fold change /veh KRT8 (11758188_x_at) / RFU NKD1 (11759106_at) / Fold change /veh NKD1 (11759106_at) / RFU SRD5A1 (11742802_a_at) / Fold change /veh SRD5A1 (11742802_a_at) / RFU TPSAB1 /// TPSB2 (11721975_s_at) / Fold change /veh TPSAB1 /// TPSB2 (11721975_s_at) / RFU GSTM3 (11746129_a_at) / Fold change /veh GSTM3 (11746129_a_at) / RFU IL23R (11737362_x_at) / Fold change /veh IL23R (11737362_x_at) / RFU TMEM51 (11727254_a_at) / Fold change /veh TMEM51 (11727254_a_at) / RFU PIWIL2 (11732686_x_at) / Fold change /veh PIWIL2 (11732686_x_at) / RFU ORM1 (11744905_x_at) / Fold change /veh ORM1 (11744905_x_at) / RFU CCDC152 (11743942_at) / Fold change /veh CCDC152 (11743942_at) / RFU ECM1 (11717891_a_at) / Fold change /veh ECM1 (11717891_a_at) / RFU IL23R (11748794_a_at) / Fold change /veh IL23R (11748794_a_at) / RFU TNFAIP8L3 (11732012_x_at) / Fold change /veh TNFAIP8L3 (11732012_x_at) / RFU MBOAT4 (11741988_at) / Fold change /veh MBOAT4 (11741988_at) / RFU 11764193_at / Fold change /veh 11764193_at / RFU TMEM53 (11763286_at) / Fold change /veh TMEM53 (11763286_at) / RFU MAGEB2 (11727129_at) / Fold change /veh MAGEB2 (11727129_at) / RFU TMEM200A (11744735_a_at) / Fold change /veh TMEM200A (11744735_a_at) / RFU CCDC152 (11751479_a_at) / Fold change /veh CCDC152 (11751479_a_at) / RFU FAM211A (11726209_a_at) / Fold change /veh FAM211A (11726209_a_at) / RFU RGS16 (11746705_a_at) / Fold change /veh RGS16 (11746705_a_at) / RFU VCAN (11755009_s_at) / Fold change /veh VCAN (11755009_s_at) / RFU RHOB (11743442_s_at) / Fold change /veh RHOB (11743442_s_at) / RFU RGS16 (11720943_a_at) / Fold change /veh RGS16 (11720943_a_at) / RFU RGS16 (11720944_at) / Fold change /veh RGS16 (11720944_at) / RFU, VPS4B / Fold change vs veh, VPS4B / RFU, CREB1 / Fold change vs veh, CREB1 / RFU, DNAJC13 / Fold change vs veh, DNAJC13 / RFU, GNAQ / Fold change vs veh, GNAQ / RFU, CDK5R1 / Fold change vs veh, CDK5R1 / RFU, ZRANB3 / Fold change vs veh, ZRANB3 / RFU, CUL4A / Fold change vs veh, CUL4A / RFU, CCNY / Fold change vs veh, CCNY / RFU, UFL1 / Fold change vs veh, UFL1 / RFU, COG3 / Fold change vs veh, COG3 / RFU, DIAPH2 / Fold change vs veh, DIAPH2 / RFU, SKA2 / Fold change vs veh, SKA2 / RFU, AFF3 / Fold change vs veh, AFF3 / RFU, LMF1 / Fold change vs veh, LMF1 / RFU, IPO11 / Fold change vs veh, IPO11 / RFU, DFFB / Fold change vs veh, DFFB / RFU, FOXP1 / Fold change vs veh, FOXP1 / RFU, CARD8 / Fold change vs veh, CARD8 / RFU, STRN3 / Fold change vs veh, STRN3 / RFU, ADK / Fold change vs veh, ADK / RFU, RASSF2 / Fold change vs veh, RASSF2 / RFU, WIPF1 / Fold change vs veh, WIPF1 / RFU, LARP1B / Fold change vs veh, LARP1B / RFU, RASA1 / Fold change vs veh, RASA1 / RFU, RB1 / Fold change vs veh, RB1 / RFU, PPFIA1 / Fold change vs veh, PPFIA1 / RFU, MAT2A / Fold change vs veh, MAT2A / RFU, CCT5 / Fold change vs veh, CCT5 / RFU, WDR92 / Fold change vs veh, WDR92 / RFU, CUX1 / Fold change vs veh, CUX1 / RFU, TTC7A / Fold change vs veh, TTC7A / RFU, TMEM135 / Fold change vs veh, TMEM135 / RFU, DEPTOR / Fold change vs veh, DEPTOR / RFU, CPM / Fold change vs veh, CPM / RFU, DNAJB6 / Fold change vs veh, DNAJB6 / RFU, CACNA2D3 / Fold change vs veh, CACNA2D3 / RFU, DTX4 / Fold change vs veh, DTX4 / RFU, TFCP2 / Fold change vs veh, TFCP2 / RFU, GMCL1 /// GMCL1P1 / Fold change vs veh, GMCL1 /// GMCL1P1 / RFU, AEBP2 / Fold change vs veh, AEBP2 / RFU, SNHG1 /// SNORD22 /// SNORD25 /// SNORD26 /// SNORD27 /// SNORD28 /// SNORD29 /// SNORD31 / Fold change vs veh, SNHG1 /// SNORD22 /// SNORD25 /// SNORD26 /// SNORD27 /// SNORD28 /// SNORD29 /// SNORD31 / Fold change (Aza/veh), C12orf56 (ProbeSet 11735607_a_at) / Fold change (ACY-1035/veh), C12orf56 (ProbeSet 11735607_a_at) / Fold change (Aza/veh), FGFR1OP (ProbeSet 11751329_s_at) / Fold change (ACY-1035/veh), FGFR1OP (ProbeSet 11751329_s_at) / Fold change (Aza/veh), VPS36 (ProbeSet 11739960_a_at) / Fold change (ACY-1035/veh), VPS36 (ProbeSet 11739960_a_at) / RFU SYPL1 (11715823_x_at) / Fold change /veh SYPL1 (11715823_x_at) / RFU IGFBP7 (11715501_s_at) / Fold change /veh IGFBP7 (11715501_s_at) / RFU REEP3 (11722064_at) / Fold change /veh REEP3 (11722064_at) / RFU IGLL1 (11728026_x_at) / Fold change /veh IGLL1 (11728026_x_at): dose or concentration left out as unconfirmed",
  "conditions": "MV-4-11 cells, 48 hours",
  "data": [
    {"smiles": "Nc1ncn([C@@H]2O[C@H](CO)[C@@H](O)[C@H]2O)c(=O)n1", "note": "[azacitidine]", "values": [
      {"measurement": "Fold change /veh PLEKHG5 (11743358_a_at)", "value": 1.07}
    ]}
  ]
}
